# From paper PMC3591457, “Biodistribution and Elimination Study of Fluorine-18 Labeled N^ε-Carboxymethyl-Lysine following Intragastric and Intravenous Administration” (PLoS ONE, 2013)
# Legend:
# Format in all cases: in vivo, ICR mice
# [1] = Biodistribution after intravenous administration; conditions: intravenous, 60 min post-injection
# Description: (§1) The biodistribution of ^18F-CML was studied in eighteen young male ICR mice with a weight range of 18–20 g. Nine mice were used for intravenous administration and the other nine mice were used for intragastric administration.
# (§2) For intravenous administration, ^18F-CML was injected into a lateral tail vein of the animals under light ether anesthesia. The injection volume (2–3 MBq; radiochemical purity 96%) was 0.1 mL. For intragastric administration, 1.5 MBq of ^18F-labeled CML was given via gastrointestinal tract tract.
# (§3) The mice were sacrificed at 5, 60, and 120 min after administration of ^18F-CML (three mice at each time point). The animals were sacrificed by heart puncture under ether anaesthesia. The tissues and organs of interest were isolated and counted in a well-type γ counter. Additionally, 200 µL of blood was taken from the carotid artery. The distributions of ^18F-CML in different tissues and organs were calculated and expressed as the percent uptake of the injection dose per whole tissue (% ID).
# [2] = Biodistribution after intragastric administration; conditions: for Uptake in bladder, percentage of injected dose per whole tissue / Uptake in brain, percentage of injected dose per whole tissue / Uptake in heart, percentage of injected dose per whole tissue / Uptake in intestines, percentage of injected dose per whole tissue / Uptake in kidneys, percentage of injected dose per whole tissue / Uptake in liver, percentage of injected dose per whole tissue / Uptake in lungs, percentage of injected dose per whole tissue / Uptake in muscles, percentage of injected dose per whole tissue / Uptake in pancreas, percentage of injected dose per whole tissue / Uptake in stomach, percentage of injected dose per whole tissue: intragastric administration, n=3, mean ± SD
# Description: as §1, §2, §3
# [3] = microPET imaging after intravenous administration; conditions: after intravenous injection
# Description: After adjusting the animal board position, 0.15 mL of an ^18F-CML solution was administered intravenously via the tail vein. The solution of ^18F-CML was prepared just prior to the intravenous administration. The dose of ^18F-CML was adjusted to approximately 80 µCi per mouse (n = 4), and the pH of the solution was adjusted to 7.4. Here, the specific activity corresponded to 3 MBq/nmol. Dynamic PET images were acquired continuously for 2 hours.
# (§4) Dynamic PET studies were performed using a dedicated microPET scanner for small animals. For imaging studies, the animals were under isoflurane anesthesia and then positioned and immobilized supine with their medial axis parallel to the axial axis of the scanner with the thorax and abdominal region (organs of interest: heart, liver, and kidneys) in the center of the field of view.
# (§5) Approximately 5 min was needed to set the position of the animals after intragastric or intravenous administration of the drug solution containing ^18F-CML. Then, the emission data were acquired for 120 min. An attenuation map was created for each mouse by intravenously administering the residual ^18F-CML after acquisition of the emission data. The acquired data were sorted into dynamic sinograms. […] The quantitative analyses of the hepatic and renal distributions of ^18F-CML were performed using ASIPro installed in the PET system.
# [4] = microPET imaging after intragastric administration
# Description: Male ICR mice weighing 18–20 g (7–8 wks old, n = 4) were kept fasting for 14 h […] and had free access to water before the experiments that followed. For the experiment, the mice were anesthetized and unconsciousness was maintained with a mixture of 1.5% isoflurane and nitrous oxide∶oxygen (7∶3). Approximately 3.0 MBq (80 µCi) of ^18F-labeled CML was administered via the gastrointestinal route. Five-minute static PET images were acquired at 15, 30, 60, 120 and 150 min post-injection.
# as §4
# as §5, with “data.” for “data. The acquired data were sorted into dynamic sinograms.”
structure (smiles),measurement,setting,value
O=C(O)CNCCCCC(NC(=O)c1ccc([18F])cc1)C(=O)O (stereo not shown) [^18F-CML],Remaining radioactivity located in the circulating blood,[1],approximately 8%
same,"Uptake in bladder, percentage of injected dose per whole tissue",[2]; 5 min,5.20±1.68 %ID
same,"Uptake in brain, percentage of injected dose per whole tissue",[2]; 5 min,1.04±0.02 %ID
same,"Uptake in heart, percentage of injected dose per whole tissue",[2]; 5 min,1.05±0.25 %ID
same,"Uptake in intestines, percentage of injected dose per whole tissue",[2]; 5 min,9.91±1.36 %ID
same,"Uptake in kidneys, percentage of injected dose per whole tissue",[2]; 5 min,2.20±0.95 %ID
same,"Uptake in liver, percentage of injected dose per whole tissue",[2]; 5 min,1.17±0.45 %ID
same,"Uptake in lungs, percentage of injected dose per whole tissue",[2]; 5 min,0.35±0.19 %ID
same,"Uptake in muscles, percentage of injected dose per whole tissue",[2]; 5 min,1.76±0.53 %ID
same,"Uptake in pancreas, percentage of injected dose per whole tissue",[2]; 5 min,0.2±0.01 %ID
same,"Uptake in stomach, percentage of injected dose per whole tissue",[2]; 5 min,76.85±7.01 %ID
same,"Uptake in bladder, percentage of injected dose per whole tissue",[2]; 60 min,12.21±1.62 %ID
same,"Uptake in brain, percentage of injected dose per whole tissue",[2]; 60 min,0.31±0.03 %ID
same,"Uptake in heart, percentage of injected dose per whole tissue",[2]; 60 min,0.75±0.52 %ID
same,"Uptake in intestines, percentage of injected dose per whole tissue",[2]; 60 min,52.29±8.71 %ID
same,"Uptake in kidneys, percentage of injected dose per whole tissue",[2]; 60 min,3.31±1.91 %ID
same,"Uptake in liver, percentage of injected dose per whole tissue",[2]; 60 min,1.0±0.12 %ID
same,"Uptake in lungs, percentage of injected dose per whole tissue",[2]; 60 min,0.51±0.11 %ID
same,"Uptake in muscles, percentage of injected dose per whole tissue",[2]; 60 min,2.16±1.82 %ID
same,"Uptake in pancreas, percentage of injected dose per whole tissue",[2]; 60 min,0.32±0.02 %ID
same,"Uptake in stomach, percentage of injected dose per whole tissue",[2]; 60 min,29.73±3.91 %ID
same,"Uptake in bladder, percentage of injected dose per whole tissue",[2]; 120 min,29.59±3.7 %ID
same,"Uptake in brain, percentage of injected dose per whole tissue",[2]; 120 min,0.02±0.01 %ID
same,"Uptake in heart, percentage of injected dose per whole tissue",[2]; 120 min,0.29±0.59 %ID
same,"Uptake in intestines, percentage of injected dose per whole tissue",[2]; 120 min,48.32±5.2 %ID
same,"Uptake in kidneys, percentage of injected dose per whole tissue",[2]; 120 min,2.1±0.29 %ID
same,"Uptake in liver, percentage of injected dose per whole tissue",[2]; 120 min,0.29±0.05 %ID
same,"Uptake in lungs, percentage of injected dose per whole tissue",[2]; 120 min,0.23±0.05 %ID
same,"Uptake in muscles, percentage of injected dose per whole tissue",[2]; 120 min,1.11±1.78 %ID
same,"Uptake in pancreas, percentage of injected dose per whole tissue",[2]; 120 min,0.05±0.00 %ID
same,"Uptake in stomach, percentage of injected dose per whole tissue",[2]; 120 min,17.87±2.1 %ID
same,Accumulation of radioactivity in the gastrointestinal tract,"[2]; intragastric, 60 min",approximately 82 % ID
same,Fraction excreted in the urine,"[2]; intragastric, 60 min",12 % ID
same,Blood uptake,"[2]; intragastric, 120 min, percentage of wet tissue",0.95±0.09 % ID
same,Duration of continued accumulation of radioactivity in the kidneys (PET),[3],approximately 60 min
same,Localization of radioactivity (PET),[4]; first 15 min after administration via stomach tube,completely localized in the stomach
same,Resorption of radioactivity from the small intestine (PET),[4]; within 2 h after application via stomach tube,not observed
